From patent US8618299B2, “Azinone-substituted azapolycycle MCH-1 antagonists, methods of making, and use thereof” (Albany Molecular Research, Inc., priority 2009, dated 2013) come the findings set out here.

One data set concerns the target human MCH-1 receptor (Homo sapiens (Human), UniProt Q99705). In words: Binding assay for human melanin-concentrating hormone (MCH1) receptor. As to conditions: membranes from CHO-K1 cells expressing human MCH1 receptor; 1.4 nM [3H]-labeled radioligand, 60 min at 25° C., pH 7.4; Ki from Cheng Prusoff equation.

Chain of human MCH-1 receptor (Q99705 whole entry): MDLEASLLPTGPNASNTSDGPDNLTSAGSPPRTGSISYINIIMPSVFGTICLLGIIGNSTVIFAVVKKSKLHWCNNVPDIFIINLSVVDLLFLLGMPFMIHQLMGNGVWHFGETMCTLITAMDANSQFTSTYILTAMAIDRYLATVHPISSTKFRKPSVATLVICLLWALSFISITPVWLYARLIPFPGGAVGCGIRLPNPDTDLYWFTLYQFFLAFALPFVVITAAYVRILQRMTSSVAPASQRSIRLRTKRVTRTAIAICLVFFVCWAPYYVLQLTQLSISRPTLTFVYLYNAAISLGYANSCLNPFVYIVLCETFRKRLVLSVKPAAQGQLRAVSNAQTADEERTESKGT

In general, melting point refers to the temperature, or range, at which the solid turns liquid. One may read the Ki as a dissociation constant, usually derived from enzyme kinetics or from competition with a known ligand. Molecule `Cl.O=c1cc(-c2ccc(C(F)(F)F)cc2)ccn1-c1ccc2c3c([nH]c2c1)CC1CCCN1C3` (stereo not shown) [Example 39, 1-(2,3,5,10,11,11a-Hexahydro-1H-indolizino[7,6-b]indol-8-yl)-4-(4-(trifluoromethyl)phenyl)pyridin-2(1H)-one Hydrochloride] gave a melting point of 275 to 285 °C. The Ki at human MCH-1 receptor came to 8.5 nM.
The matching figures for `Cl.Cn1c2c(c3ccc(-n4ccc(-c5ccc(C(F)(F)F)cc5)cc4=O)nc31)C1CCCN1CC2` (stereo not shown) [Example 49, 1-(7-Methyl-2,3,5,6,7,11c-hexahydro-1H-pyrido[3′,2′:4,5]pyrrolo[2,3-g]indolizin-9-yl)-4-(4-(trifluoromethyl)phenyl)pyridin-2(1H)-one Hydrochloride]: 190 to 200 °C and 15 nM.
